This is an account of results in patent US20230103965A1, “NOVEL ACTIVATORS OF THE LIPIDATING TRANSPORTER ATP BINDING CASSETTE PROTEIN TYPE 1 (AB-CA1) AND THERAPEUTIC USES THEREOF” (RAMOT AT TEL-AVIV UNIVERSITY LTD., priority 2020, published 2023).

The target of one test is T1, ABCA1 (Homo sapiens, UniProt O95477).
T1 construct: expressed in transfected cells; host or cells: BHK (baby hamster kidney) cells, ABCA1 induced with mifepristone
The experiment in a line: ABCA1 dependency of cholesterol efflux in BHK cells with inducible ABCA1. Format: cell-based. The following applies: for ABCA1 dependency of the effect on cholesterol efflux: BHK cells, presence vs absence of ABCA1. How it is done:
(§1) Mife=Mifepristone which induces the expression of ABCA1.
as §1
(iii) Assessment of the ABCA1 dependency of the effects of the hits on cholesterol efflux. These experiments investigated the extent to which ABCA1 is indeed the target of the hits. This was performed utilizing BHK (baby hamster kidney) cells with inducible expression of ABCA1 followed by determination of the effects for the presence and absence of ABCA1 on the translocation of cholesterol to apoE4.

In a further test the target is T2, ECD2 of ABCA1 (Homo sapiens, UniProt O95477).
T2 construct: The proteins used in these experiments were Extra-Cellular Domain 1 (ECD1) of ABCA1 and Extra-Cellular Domain 2 (ECD2); purchased Biomatick
T2 sequence (O95477 1372-1656 limits assumed): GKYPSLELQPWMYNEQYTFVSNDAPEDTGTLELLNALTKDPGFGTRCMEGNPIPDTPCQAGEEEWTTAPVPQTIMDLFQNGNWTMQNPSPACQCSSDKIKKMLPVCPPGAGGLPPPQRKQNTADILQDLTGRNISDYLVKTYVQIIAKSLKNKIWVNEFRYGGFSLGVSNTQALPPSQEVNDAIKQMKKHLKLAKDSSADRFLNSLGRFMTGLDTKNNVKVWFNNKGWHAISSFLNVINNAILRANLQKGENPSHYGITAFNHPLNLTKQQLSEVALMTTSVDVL
The experiment in a line: Microscale thermophoresis (MST) binding to ECD2. How it is done: Microscale thermophoresis (MST) measurements. MST measurements of the binding of the HTS hits to the extracellular domain (ECD) of ABCA1 were performed by two complimentary methods utilizing either fluorescently labeled proteins or the endogenous fluorescence of unlabeled proteins. This was pursued as follows:
(i) MST utilizing labeled proteins: The proteins used in these experiments were Extra-Cellular Domain 1 (ECD1) of ABCA1 and Extra-Cellular Domain 2 (ECD2) which were provided by the manufacturer (Biomatick) at a concentration of 7.1 μM. The buffers of protein samples were exchanged on a desalting PD-10 column to MST labelling buffer (Nanotemper Technologies, NT.115). […] The concentrations of the labeled protein samples solutions were determined by Spectrophotometer (Carey 60) at 280 nm and 650 nm and adjusted to a final concentration 7.1 μM, aliquoted in 30 μl and stored at −80° C. for further use. Protein-compound interactions were analyzed by microscale thermophoresis. […] All dissociation constants (KD) were calculated to a binding model assuming a 1:1 stoichiometry per binding partner. […]
These experiments employed the MST ligand binding to protein assay (FIG. 13 and EXAMPLE 1). […] Two complementary MST tests were performed, in which either the proteins were labeled with a fluorescence moiety or the endogenous fluorescence of the unlabeled proteins was monitored).
A general note: Microscale thermophoresis detects binding through changes in fluorescence in a small temperature gradient.

T1 sequence (O95477 whole entry): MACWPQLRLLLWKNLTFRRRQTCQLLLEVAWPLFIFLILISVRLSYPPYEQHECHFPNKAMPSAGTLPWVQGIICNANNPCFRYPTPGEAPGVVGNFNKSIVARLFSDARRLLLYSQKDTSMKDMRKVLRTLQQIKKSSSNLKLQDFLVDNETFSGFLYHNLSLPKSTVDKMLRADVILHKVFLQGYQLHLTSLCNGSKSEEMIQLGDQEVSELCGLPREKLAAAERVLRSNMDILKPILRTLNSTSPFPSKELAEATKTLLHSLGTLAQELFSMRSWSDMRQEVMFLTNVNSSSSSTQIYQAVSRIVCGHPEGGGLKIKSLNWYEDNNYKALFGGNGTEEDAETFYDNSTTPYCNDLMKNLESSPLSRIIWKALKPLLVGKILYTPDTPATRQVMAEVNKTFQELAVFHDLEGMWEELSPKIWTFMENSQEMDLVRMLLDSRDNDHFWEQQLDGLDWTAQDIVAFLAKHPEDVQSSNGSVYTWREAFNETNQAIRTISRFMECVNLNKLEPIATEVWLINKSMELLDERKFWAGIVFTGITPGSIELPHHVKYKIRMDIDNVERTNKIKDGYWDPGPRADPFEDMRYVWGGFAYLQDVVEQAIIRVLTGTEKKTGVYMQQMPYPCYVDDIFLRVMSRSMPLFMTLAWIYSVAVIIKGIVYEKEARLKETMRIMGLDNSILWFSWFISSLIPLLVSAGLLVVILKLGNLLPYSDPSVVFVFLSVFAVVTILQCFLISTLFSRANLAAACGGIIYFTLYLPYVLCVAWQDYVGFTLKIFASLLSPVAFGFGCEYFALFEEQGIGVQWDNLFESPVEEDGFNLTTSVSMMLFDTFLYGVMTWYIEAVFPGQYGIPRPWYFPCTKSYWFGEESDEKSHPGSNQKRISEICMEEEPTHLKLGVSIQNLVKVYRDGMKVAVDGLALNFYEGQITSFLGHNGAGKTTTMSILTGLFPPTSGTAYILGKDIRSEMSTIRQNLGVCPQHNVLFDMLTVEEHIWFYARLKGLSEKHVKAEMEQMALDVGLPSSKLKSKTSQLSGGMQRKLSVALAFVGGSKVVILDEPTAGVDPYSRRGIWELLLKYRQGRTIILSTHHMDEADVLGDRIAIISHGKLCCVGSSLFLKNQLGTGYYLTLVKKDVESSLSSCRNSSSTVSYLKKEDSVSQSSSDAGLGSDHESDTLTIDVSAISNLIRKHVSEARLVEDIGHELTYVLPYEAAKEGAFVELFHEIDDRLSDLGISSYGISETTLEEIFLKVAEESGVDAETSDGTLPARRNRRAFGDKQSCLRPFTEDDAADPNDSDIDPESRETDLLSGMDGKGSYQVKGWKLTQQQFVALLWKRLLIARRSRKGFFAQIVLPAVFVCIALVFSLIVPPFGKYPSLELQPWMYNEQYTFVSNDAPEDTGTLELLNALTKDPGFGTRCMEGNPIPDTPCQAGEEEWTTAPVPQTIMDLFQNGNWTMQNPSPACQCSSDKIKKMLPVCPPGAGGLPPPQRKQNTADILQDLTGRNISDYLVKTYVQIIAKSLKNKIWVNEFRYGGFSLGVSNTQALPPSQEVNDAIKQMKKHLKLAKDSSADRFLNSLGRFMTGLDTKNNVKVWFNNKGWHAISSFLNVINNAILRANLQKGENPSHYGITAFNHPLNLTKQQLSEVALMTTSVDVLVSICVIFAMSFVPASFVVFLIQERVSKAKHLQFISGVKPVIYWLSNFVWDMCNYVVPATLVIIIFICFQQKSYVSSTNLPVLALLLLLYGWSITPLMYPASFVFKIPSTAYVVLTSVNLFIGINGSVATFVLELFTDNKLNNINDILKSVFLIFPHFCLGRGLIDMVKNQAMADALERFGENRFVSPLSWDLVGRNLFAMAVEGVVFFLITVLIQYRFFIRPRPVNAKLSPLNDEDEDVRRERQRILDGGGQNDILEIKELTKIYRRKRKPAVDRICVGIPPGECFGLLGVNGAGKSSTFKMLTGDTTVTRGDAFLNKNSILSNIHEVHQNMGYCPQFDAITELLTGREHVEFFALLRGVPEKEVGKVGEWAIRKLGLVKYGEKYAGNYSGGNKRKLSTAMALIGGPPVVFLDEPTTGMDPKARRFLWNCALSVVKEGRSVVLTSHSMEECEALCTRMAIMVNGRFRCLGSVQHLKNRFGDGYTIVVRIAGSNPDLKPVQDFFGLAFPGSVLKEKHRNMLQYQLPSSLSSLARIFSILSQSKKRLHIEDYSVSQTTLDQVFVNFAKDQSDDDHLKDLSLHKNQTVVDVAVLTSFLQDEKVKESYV

Take `Cc1nn(CC(=O)c2ccc(Br)s2)c(C)c1[N+](=O)[O-]` [Hit #3]: the “Lipidation of apoE4 in the absence of ABCA1” value at ABCA1 (BHK cells not expressing ABCA1) is given as “did not stimulate any lipidation of apoE4”. For the same molecule, the “ABCA1 dependency of the effect on cholesterol efflux” value on ABCA1 is recorded as “depend on the presence of ABCA1”. Also, on ECD2 of ABCA1, the “MST binding to ECD2” value was “do not bind at all”.
Consider `O=[N+]([O-])c1ccc(N2CCCCC2)c2nonc12` [Hit #7], for which the “ABCA1 dependency BHK Cells” value on ABCA1 (Table 2) and on ABCA1 (Table 4) was “No activity” each time. Moreover, the “Cholesterol efflux from ABCA1 expressing BHK cells” value at ABCA1 (BHK cells expressing ABCA1) was “had no effect”.
Regarding `CC(C)(C)C(=O)COC(=O)c1ccccc1SCc1cc(-c2ccco2)on1` [Hit #4], the “ABCA1 dependency of the effect on cholesterol efflux” value at ABCA1 is given as “depend on the presence of ABCA1”. Besides, the “MST binding to ECD2” value on ECD2 of ABCA1 was “do not bind at all”.
